Reference: patent US5210290A, “Fluorobenzenesulfonamides” (Schering Aktiengesellschaft, priority 1990, dated 1993)

What was measured:
pKa (37° C.) = type: physicochemical
LD50, mouse = details: in vivo
[1] = pH dependency of the 19F NMR chemical shift (ppm/pH); type: physicochemical; details: change of 19F chemical shift per pH unit
Excerpt: Determination of the pH value with the aid of NMR spectroscopy is based on the measurement of the signals from a chemical compound which is in a pH-dependent, reversible equilibrium. If this equilibrium is slow with respect to the NMR time scale, then the signals of all components can be obtained, and the signal intensities correspond to the concentrations of the equilibrium components. In contrast thereto, with a fast equilibrium, only one signal can be measured, and the chemical shift is given by the chemical displacement of the equilibrium components and their concentration.
In a two-component equilibrium, with knowledge of the pKa value and the chemical shift of the components, it is then possible to calculate the pH value with the aid of the Henderson-Hasselbalch equation.
The frequency (chemical shift) of a fluorine line is determined by the position of the F atom in the molecule. This also holds true, in principle, for all other atomic nuclei, but the chemical shift is especially strongly pronounced in case of the fluorine atom. In order to observe and/or quantify a shift of the fluorine signal, a related (reference) line is needed. This frequency line can be the ^1 H signal, an external F standard or, respectively, an unchanging F line which is likewise within the area to be measured. […]

SMILES	pKa (pKa (37° C.))	LD50 (LD50, mouse)	ppm/pH [1]
O=C(O)CN(CC(=O)O)C(=O)CS(=O)(=O)Nc1ccc(F)cc1C(F)(F)F [Example 10, 2-[2-[N-(4-Fluoro-2-trifluoromethylphenyl)sulfamoyl]acetylimino]diacetic Acid]	6.68	≤ 7500 µmol/kg	4.94 ppm/pH
O=C(O)CCNC(=O)CCS(=O)(=O)Nc1ccc(F)cc1C(F)(F)F [Example 48, 3-[3-[N-(4-Fluoro-2-trifluoromethylphenyl)sulfamoyl]propionylamino]propionic Acid]	6.91	4000 µmol/kg	5.21 ppm/pH
